System: M. tuberculosis H37Rv growth inhibition
Assay: M. tuberculosis H37Rv growth inhibitors, H37Rv strain (AID 1626)
Conditions: for IC90: measured here: IC90 against H37Rv; for CC50: measured here: Vero cell cytotoxicity

Row | Structure (SMILES) | IC50 | IC90 | CC50
1 | Cc1cccc(-c2ncc(CN3CCC(CO)(CCCc4ccccc4)CC3)cn2)c1 | 13.2 µM | 40.7 µM | > 40 µM
2 | CCc1ccc(-c2nn(-c3ccccc3)cc2CSC(=N)N)cc1 | 6.73 µM | 10.7 µM | 14 µM
3 | O=C(c1ccc2c(c1)[nH]c(=S)n1c3ccccc3nc21)N1CCN(c2cccc(Cl)c2)CC1 | 4.39 µM | 32.3 µM | 26.5 µM
4 | O/C(=C\c1nc2ccccc2nc1/C=C(\O)c1ccccc1)c1ccccc1 |  | > 100 µM | > 40 µM
5 | CCOC(=O)CSc1nc(N)c(C#N)c(CC(C)C)c1C#N | 1.44 µM | 8.77 µM | 
6 | COc1ccc(NC(=O)CN(C)CC(=O)Nc2ccc3c(c2)CCC3)cc1 | 20.6 µM | > 100 µM | 
7 | O=C(CCC(=O)OCc1ccc(C(=O)Oc2ccccc2)cc1)Nc1cccc2ccccc12 | 7.06 µM | 10.1 µM | > 40 µM
8 | Oc1cccc2ccc(/C=C/c3ccc(Br)s3)nc12 | 2.56 µM | > 100 µM | 32.4 µM
9 | Cc1ccc(-c2nnc3sc(CCc4ccccc4)nn23)cc1 | 1.63 µM | 6.83 µM | 
10 | COc1cc(OC)c2cc[nH]c2c1 |  | > 100 µM | 
11 | O=C(/C=C/c1ccc(-c2ccc(F)cc2)o1)N1CCCC1 | 14 µM | > 100 µM | 
12 | Cc1cccc(-c2nsc(SCC(=O)NCc3ccc4c(c3)OCO4)n2)c1 | 7.57 µM | > 100 µM | 
13 | Cc1c(-c2cccc(Cl)c2)nc2ccccc2c1C(=O)OCC(=O)Nc1ccc2c(c1)OCO2 | 10.9 µM | > 100 µM | 38.8 µM
14 | COc1ccc2nc(N=Nc3ccc(O)c4ccccc34)sc2c1 | 5.17 µM | 10.1 µM | 4.6 µM
15 | O=C(Nc1ccc(N2CCOCC2)c(Cl)c1)c1ccc([N+](=O)[O-])o1 | 7.54 µM | 11.3 µM | 3.3 µM
16 | Nc1cccc(-c2cc3ccccc3oc2=O)c1 | 29.4 µM | > 100 µM | 
17 | CCOC(=O)c1ccc(N/C=C2\CCCCC2=O)cc1 |  | > 100 µM | 

Row | Structure (SMILES) | IC50 | IC90 | CC50
18 | O=C(Nc1nnc(-c2ccc(Cl)cc2)o1)C1=COCCO1 | 6.4 µM | 11.4 µM | > 40 µM
19 | O=C(Nc1ccc(C2=NCCN2)cc1)c1ccc(Cl)c(C(=O)Nc2ccc(C3=NCCN3)cc2)c1 | 7.69 µM | 16.9 µM | 
20 | CCOC(=O)c1cc(-c2csc(-c3ccc(C(F)(F)F)cc3)n2)on1 | < 0.195 µM | 3.33 µM | 
21 | O=C1c2ccccc2C(Nc2ccc(-c3nc4ccccc4[nH]3)cc2)N1Cc1ccco1 (centres undefined) | 9.03 µM | 20.8 µM | > 40 µM
22 | O=c1c(C=Nc2ccc(Oc3ccccc3)cc2)c[nH]n1-c1cccc(Cl)n1 |  | > 100 µM | > 40 µM
23 | CCOC(=O)CSc1nnc(-c2ccccc2NC(=O)c2ccccc2)o1 | 2.75 µM | > 100 µM | 
24 | Cc1sc(N)nc1-c1ccccc1 |  | > 100 µM | 
25 | Cc1coc2c1C(=O)C(=O)c1c-2ccc2c(C)cccc12 | 0.336 µM | 0.366 µM | 27.8 µM
26 | Cc1ccc(NC(=O)CCn2cnc3ccccc3c2=O)cc1Cl |  | > 100 µM | 
27 | CCCc1cc(-c2nc(-c3ccc(C)cc3)cs2)ccn1 | 7.61 µM | 22.2 µM | > 40 µM
28 | CCOC(=O)c1ccc(Nc2cc3ccccc3c(=O)[nH]2)cc1 | 13.4 µM | > 100 µM | 
29 | O=C(Oc1ccccc1Cl)c1ccc(N2CCOCC2)c([N+](=O)[O-])c1 | 4.09 µM | 11.1 µM | 
30 | CCC(CC)c1nnc(NC(=O)c2ccc3ccccc3n2)s1 | 0.814 µM | 1.48 µM | 35.7 µM
31 | CCOC(=O)CSc1ncnc2c1cnn2-c1ccc(C)cc1C | 1.44 µM | 2.48 µM | 
32 | CN1CCN(c2oc(COc3ccc(-c4ccccc4)cc3)nc2C#N)CC1 | 15.4 µM | 28.7 µM | > 40 µM
33 | Nc1nc(CCl)nc(Nc2ccccc2)n1 | 31.2 µM | > 100 µM | 3.32 µM
34 | CCCCOC(=O)Nc1ccc(C(=O)OCCC)cc1 | 2.34 µM | > 100 µM | 

From PubChem BioAssay AID1626 (SRMLSC, 2009)
